# Experimental data published in ChEMBL document CHEMBL1125043, “Synthesis and biological activity of an acyclic analogue of 5,6,7,8-tetrahydrofolic acid, N-[4-[[3-(2,4-diamino-1,6-dihydro-6-oxo-5- pyrimidinyl)propyl]amino]-benzoyl]-L-glutamic acid” (J Med Chem, 1990).
# Experiments:
# [1] = biological target: T1, C-1-tetrahydrofolate synthase, cytoplasmic (Mus musculus) (UniProt Q922D8); experiment: Evaluated for inhibitory activity on 5,10-Methylene Tetrahydrofolate Cyclohydrolase(L cell) at folate substrate concentration of 100 uM
# T1 sequence (whole entry): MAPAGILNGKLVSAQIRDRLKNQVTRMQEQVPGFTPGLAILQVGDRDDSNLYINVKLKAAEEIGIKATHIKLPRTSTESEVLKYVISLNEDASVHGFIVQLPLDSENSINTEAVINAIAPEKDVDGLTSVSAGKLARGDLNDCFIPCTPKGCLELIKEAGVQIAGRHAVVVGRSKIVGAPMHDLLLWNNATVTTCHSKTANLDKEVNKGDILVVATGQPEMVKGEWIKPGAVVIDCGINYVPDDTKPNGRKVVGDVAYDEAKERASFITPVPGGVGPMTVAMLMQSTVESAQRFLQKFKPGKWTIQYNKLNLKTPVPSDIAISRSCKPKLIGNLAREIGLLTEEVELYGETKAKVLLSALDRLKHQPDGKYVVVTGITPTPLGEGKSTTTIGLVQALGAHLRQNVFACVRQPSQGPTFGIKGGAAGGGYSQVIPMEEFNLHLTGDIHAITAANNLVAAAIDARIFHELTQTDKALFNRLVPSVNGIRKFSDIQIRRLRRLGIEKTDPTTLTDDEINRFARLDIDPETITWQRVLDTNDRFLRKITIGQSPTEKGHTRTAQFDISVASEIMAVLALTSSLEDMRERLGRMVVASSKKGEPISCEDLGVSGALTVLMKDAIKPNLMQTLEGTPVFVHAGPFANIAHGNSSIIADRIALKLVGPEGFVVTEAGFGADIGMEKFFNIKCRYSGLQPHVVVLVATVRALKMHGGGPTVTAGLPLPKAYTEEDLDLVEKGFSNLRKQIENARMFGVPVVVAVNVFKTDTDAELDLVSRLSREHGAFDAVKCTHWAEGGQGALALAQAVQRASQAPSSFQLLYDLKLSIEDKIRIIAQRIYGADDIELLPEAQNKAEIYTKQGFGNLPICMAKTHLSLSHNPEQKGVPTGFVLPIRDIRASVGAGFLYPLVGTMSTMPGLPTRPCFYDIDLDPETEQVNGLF
# Mus musculus = species on record: Mus musculus; experiment: Evaluated for inhibitory activity on 10-formyltetrahydrofolate synthetase(L cell) at folate substrate concentration of 100 uM
# [2] = biological target: T1, C-1-tetrahydrofolate synthase, cytoplasmic (Mus musculus); experiment: Evaluated for inhibitory activity on 5,10-Methenyl Tetrahydrofolate Cyclohydrolase(L cell) at folate substrate concentration of 100 uM
# Detroit 98 = experiment: Evaluated in vitro for ability to inhibit the Detroit 98 cell lines; type: functional, cell-based; conditions: Homo sapiens
# [3] = biological target: T2, Dihydrofolate reductase (Rattus norvegicus) (UniProt Q920D2); experiment: Evaluated for inhibitory activity on Dihydrofolate reductase(rat liver) at folate substrate concentration of 45 uM
# T2 sequence (whole entry): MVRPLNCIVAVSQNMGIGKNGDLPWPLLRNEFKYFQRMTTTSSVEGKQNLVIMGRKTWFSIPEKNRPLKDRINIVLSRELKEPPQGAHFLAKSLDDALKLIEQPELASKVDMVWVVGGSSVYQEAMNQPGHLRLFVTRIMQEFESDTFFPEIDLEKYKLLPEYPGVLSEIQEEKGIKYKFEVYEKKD
# [4] = biological target: Methionine synthase (Mus musculus) (UniProt A6H5Y3); experiment: Evaluated for inhibitory activity on Methionine synthase(L cell) at folate substrate concentration of 100 uM
# [5] = biological target: T3, Serine hydroxymethyltransferase, cytosolic (Mus musculus) (UniProt P50431); experiment: Evaluated for inhibitory activity on Serine hydroxymethyl transferase (Lcell) at folate substrate concentration of 160 uM
# T3 sequence (whole entry): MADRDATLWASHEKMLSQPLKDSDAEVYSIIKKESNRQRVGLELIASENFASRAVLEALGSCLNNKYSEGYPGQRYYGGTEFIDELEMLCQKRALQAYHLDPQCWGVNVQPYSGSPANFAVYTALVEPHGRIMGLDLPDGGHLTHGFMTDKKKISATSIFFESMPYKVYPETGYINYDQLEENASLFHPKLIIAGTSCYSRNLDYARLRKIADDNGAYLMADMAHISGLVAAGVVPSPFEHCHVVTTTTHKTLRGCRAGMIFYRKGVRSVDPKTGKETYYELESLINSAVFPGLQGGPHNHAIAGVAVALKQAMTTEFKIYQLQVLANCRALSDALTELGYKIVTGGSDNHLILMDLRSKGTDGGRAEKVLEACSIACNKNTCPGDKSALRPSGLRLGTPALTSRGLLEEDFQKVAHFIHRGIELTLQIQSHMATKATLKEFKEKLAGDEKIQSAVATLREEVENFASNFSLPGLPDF
# L cells [6] = experiment: Evaluated in vitro for ability to inhibit the L cell lines.; type: functional, cell-based; conditions: Mus musculus, L929
# [7] = biological target: T4, Bifunctional purine biosynthesis protein ATIC (Homo sapiens, UniProt P31939); experiment: Hexaglutamyl homologue inhibition activity against the AICAR formyltransferase was determined against MOLT-4; type: cell-based
# [8] = biological target: T5, Bifunctional purine biosynthesis protein ATIC (Mus musculus, UniProt Q9CWJ9); experiment: Diglutamyl homologue inhibition activity against the AICAR formyltransferase was determined against L cell; type: cell-based
# T5 sequence (Q9CWJ9 whole entry): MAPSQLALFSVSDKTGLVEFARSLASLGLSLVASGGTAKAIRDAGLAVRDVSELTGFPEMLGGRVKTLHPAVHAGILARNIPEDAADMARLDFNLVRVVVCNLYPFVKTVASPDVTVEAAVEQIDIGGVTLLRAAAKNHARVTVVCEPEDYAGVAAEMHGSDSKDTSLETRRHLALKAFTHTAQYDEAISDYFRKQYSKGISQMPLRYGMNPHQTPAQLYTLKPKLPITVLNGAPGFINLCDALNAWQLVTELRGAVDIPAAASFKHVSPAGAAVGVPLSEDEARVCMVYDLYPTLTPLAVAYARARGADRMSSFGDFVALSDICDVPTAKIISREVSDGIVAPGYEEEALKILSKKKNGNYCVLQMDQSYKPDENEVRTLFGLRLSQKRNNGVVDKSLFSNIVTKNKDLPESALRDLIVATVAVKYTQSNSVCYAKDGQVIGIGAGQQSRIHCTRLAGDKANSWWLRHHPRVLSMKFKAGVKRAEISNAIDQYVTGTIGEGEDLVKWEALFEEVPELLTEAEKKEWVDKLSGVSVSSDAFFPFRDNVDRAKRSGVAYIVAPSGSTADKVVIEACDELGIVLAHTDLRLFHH
# [9] = biological target: T5, Bifunctional purine biosynthesis protein ATIC; experiment: Hexaglutamyl homologue inhibition activity against the AICAR formyltransferase was determined against L cell; type: cell-based
# [10] = biological target: T5, Bifunctional purine biosynthesis protein ATIC; experiment: Inhibition activity against AICAR formyltransferase determined against L cell; type: cell-based
# [11] = biological target: T5, Bifunctional purine biosynthesis protein ATIC; experiment: Triglutamyl homologue inhibition activity against AICAR formyltransferase was determined against L cell; type: cell-based
# [12] = biological target: T4, Bifunctional purine biosynthesis protein ATIC; experiment: Inhibition activity against AICAR formyltransferase determined against MOLT-4; type: cell-based
# Sus scrofa [13] = species on record: Sus scrofa; experiment: Apparent Km in uM for its activation for Hog Liver Folyl-polyglutamate synthase was determined
# Sus scrofa [14] = species on record: Sus scrofa; experiment: Relative Vmax for its activation for Hog Liver Folyl-polyglutamate synthase was determined
# L cells [15] = experiment: Evaluated for reversal of L cell inhibition, where reversal of toxicity was evaluated by the addition of Hypoxanthine (37 uM); type: functional, Mus musculus, L929
# L cells [16] = experiment: Evaluated for reversal of L cell inhibition, where reversal of toxicity was evaluated by the addition of Leucovorin (0.2 uM); type: functional, Mus musculus, L929
# L cells [17] = experiment: Evaluated for reversal of L cell inhibition, where reversal of toxicity was evaluated by the addition of Thymidine + Hypoxanthine; type: functional, Mus musculus, L929
# [18] = Ratio of app Km to ral Vmax
# L cells [19] = experiment: Evaluated for reversal of L cell inhibition, where reversal of toxicity was evaluated by the addition of Thymidine (20 uM); type: functional, Mus musculus, L929
# A-427 = experiment: Antitumor activity on A-427 lung carcinoma cell lines; type: functional, cell-based; conditions: Homo sapiens
# CCRF-CEM = experiment: Antitumor activity on CCRF-CEM T-cell acute lymphoblastic leukemia cell lines; type: functional, cell-based; conditions: Homo sapiens
# [20] = Hexaglutamyl homologue inhibition activity against the Glycinamide ribonucleotide transformylase (GAR-TFase) was determined against hog liver; type: tissue-based, Sus scrofa
# [21] = Inhibition activity against Glycinamide ribotide formyltransferase against L cell; type: cell-based
# [22] = Diglutamyl homologue inhibition activity against the Glycinamide ribonucleotide transformylase (GAR-TFase)was determined against L cell; type: cell-based, Mus musculus
# [23] = Hexaglutamyl homologue inhibition activity against the Glycinamide ribonucleotide transformylase (GAR-TFase) was determined against L cell; type: cell-based, Mus musculus
# [24] = Inhibition activity against Glycinamide ribonucleotide transformylase (GAR-TFase) against L cell; type: cell-based, Mus musculus
# [25] = Triglutamyl homologue inhibition activity against Glycinamide ribonucleotide transformylase (GAR-TFase)was determined against L cell; type: cell-based, Mus musculus
# L cells [26] = experiment: Evaluated for reversal of L cell inhibition, where reversal of toxicity was evaluated by the addition of Thymidine Hypoxanthine; type: functional, Mus musculus, L929
# MOLT-4 = experiment: Antitumor activity on MOLT-4 T-cell acute lymphoblastic leukemia cell lines; type: functional, cell-based; conditions: Homo sapiens
# MCF7 = experiment: Antitumor activity on MCF-7 breast adenocarcinoma cell lines; type: functional, cell-based; conditions: Homo sapiens
# P388 [27] = experiment: Effect on P388 tumor cell growth in mice. The percentage of increased life span was determined administered 10 mg/kg schedule - t.i.d., days 1-4; type: functional; conditions: Mus musculus, P388, intraduodenal
# P388 [28] = experiment: Effect on P388 tumor cell growth in mice. The percentage of increased life span was determined administered 5 mg/kg schedule - t.i.d., days 1-4; type: functional; conditions: Mus musculus, P388, intraduodenal
# P388 [29] = experiment: Effect on P388 tumor cell growth in mice. The percentage of increased life span was determined administered 7.5 mg/kg schedule - b.i.d., days 1-3; type: functional; conditions: Mus musculus, P388, intraduodenal
# P388 [30] = experiment: Effect on P388 tumor cell growth in mice. The percentage of increased life span was determined administered 75 mg/kg schedule - QD,days1,5,9; type: functional; conditions: Mus musculus
# SW480 = experiment: Antitumor activity on SW 480 colon adenocarcinoma cell lines; type: functional, cell-based; conditions: Homo sapiens
# WiDr = experiment: Antitumor activity on WiDr colon adenocarcinoma cell lines; type: functional, cell-based; conditions: Homo sapiens
# [31] = biological target: T1, C-1-tetrahydrofolate synthase, cytoplasmic (Mus musculus); experiment: Evaluated for inhibitory activity on 5,10-methylenetetrahydrofolate dehydrogenase(L cell) at folate substrate concentration of 100 uM
# [32] = system: Thymidylate synthase (Bos taurus); experiment: Evaluated for inhibitory activity on Thymidylate synthase(calf thymus) at folate substrate concentration of 200 uM
# T4 sequence (P31939 whole entry): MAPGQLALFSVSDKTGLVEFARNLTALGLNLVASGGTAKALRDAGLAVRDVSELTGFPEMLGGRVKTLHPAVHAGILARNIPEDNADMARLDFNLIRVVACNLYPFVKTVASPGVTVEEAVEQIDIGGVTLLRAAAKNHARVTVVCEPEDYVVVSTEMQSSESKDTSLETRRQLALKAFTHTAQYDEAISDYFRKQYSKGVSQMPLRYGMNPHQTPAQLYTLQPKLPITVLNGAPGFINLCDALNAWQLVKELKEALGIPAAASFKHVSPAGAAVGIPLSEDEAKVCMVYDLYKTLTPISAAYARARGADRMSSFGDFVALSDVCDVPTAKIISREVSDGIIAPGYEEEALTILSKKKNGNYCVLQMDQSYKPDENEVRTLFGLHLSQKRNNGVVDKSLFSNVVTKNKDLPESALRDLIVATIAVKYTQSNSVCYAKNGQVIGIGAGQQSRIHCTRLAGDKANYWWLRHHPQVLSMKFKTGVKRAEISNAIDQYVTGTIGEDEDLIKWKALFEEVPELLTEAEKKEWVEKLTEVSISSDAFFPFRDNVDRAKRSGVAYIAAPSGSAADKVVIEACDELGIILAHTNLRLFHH
# Sequence of Methionine synthase (Mus musculus) (A6H5Y3 whole entry): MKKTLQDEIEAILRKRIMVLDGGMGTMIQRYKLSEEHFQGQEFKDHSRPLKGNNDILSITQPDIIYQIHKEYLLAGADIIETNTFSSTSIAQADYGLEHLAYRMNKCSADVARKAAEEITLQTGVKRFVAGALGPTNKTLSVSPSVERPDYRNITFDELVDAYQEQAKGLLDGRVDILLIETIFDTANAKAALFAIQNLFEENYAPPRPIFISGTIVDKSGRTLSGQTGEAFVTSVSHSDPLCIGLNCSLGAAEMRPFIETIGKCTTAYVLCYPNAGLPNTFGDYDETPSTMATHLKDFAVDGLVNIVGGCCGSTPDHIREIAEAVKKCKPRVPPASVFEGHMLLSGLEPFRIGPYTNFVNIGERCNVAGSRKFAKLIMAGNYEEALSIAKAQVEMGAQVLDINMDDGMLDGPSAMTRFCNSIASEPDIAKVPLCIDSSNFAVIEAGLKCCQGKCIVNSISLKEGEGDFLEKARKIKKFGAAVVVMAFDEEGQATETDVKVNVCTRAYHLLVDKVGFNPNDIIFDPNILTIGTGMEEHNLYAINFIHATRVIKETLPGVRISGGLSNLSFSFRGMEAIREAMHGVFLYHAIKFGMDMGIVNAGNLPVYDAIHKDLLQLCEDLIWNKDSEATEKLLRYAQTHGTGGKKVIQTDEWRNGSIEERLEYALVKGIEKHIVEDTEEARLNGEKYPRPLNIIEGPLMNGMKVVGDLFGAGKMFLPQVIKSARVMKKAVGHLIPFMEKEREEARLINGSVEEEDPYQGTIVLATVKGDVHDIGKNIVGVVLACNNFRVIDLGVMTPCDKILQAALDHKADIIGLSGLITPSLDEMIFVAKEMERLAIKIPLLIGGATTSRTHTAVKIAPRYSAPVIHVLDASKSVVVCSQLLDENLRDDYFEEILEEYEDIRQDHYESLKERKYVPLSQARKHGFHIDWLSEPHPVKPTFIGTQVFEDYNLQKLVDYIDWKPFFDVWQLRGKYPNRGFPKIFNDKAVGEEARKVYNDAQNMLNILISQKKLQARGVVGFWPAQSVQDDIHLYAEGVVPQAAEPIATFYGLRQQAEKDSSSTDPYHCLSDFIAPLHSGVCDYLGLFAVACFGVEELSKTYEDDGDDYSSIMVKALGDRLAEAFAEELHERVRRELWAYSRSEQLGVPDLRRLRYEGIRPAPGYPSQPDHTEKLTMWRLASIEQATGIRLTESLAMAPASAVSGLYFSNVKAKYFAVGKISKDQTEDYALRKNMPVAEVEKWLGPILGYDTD
structure (smiles),measurement,setting,value
Nc1nc(N)c(CCCN(C=O)c2ccc(C(=O)NC(CCC(=O)O)C(=O)O)cc2)c(O)n1 (stereo not drawn),inhibition,[1],0%
same,inhibition,Mus musculus,0%
same,inhibition,[2],34%
same,IC50,Detroit 98,210 nM
same,inhibition,[3],50%
same,inhibition,[4],0%
same,inhibition,[5],13%
CN(CCCc1c(N)nc(N)nc1O)c1ccc(C(=O)NC(CCC(=O)O)C(=O)O)cc1 (stereo not drawn),IC50,Detroit 98,2000 nM
same,IC50,L cells [6],280 nM
Nc1nc(N)c(CCCNc2ccc(C(=O)N[C@@H](CCC(=O)O)C(=O)O)cc2)c(=O)[nH]1,IC50,[7],700 nM
same,IC50,[8],9400 nM
same,IC50,[9],700 nM
same,IC50,[10],200000 nM
same,IC50,[11],1900 nM
same,IC50,[12],94000 nM
Nc1nc(N)c2nc(CNc3ccc(C(=O)N[C@@H](CCC(=O)O)C(=O)O)cc3)cnc2n1 [AMINOPTERIN],IC50,Detroit 98,2 nM
same,Km,Sus scrofa [13],24.4 µM
same,Relative Vmax,Sus scrofa [14],144%
same,IC50,L cells [6],2.3 nM
same,Inhibition,L cells [15],79%
same,Inhibition,L cells [16],6%
same,Inhibition,L cells [17],0%
same,Ratio,[18],5.9
same,Inhibition,L cells [19],68%
Nc1nc(N)c(CCCNc2ccc(C(=O)N[C@@H](CCC(=O)O)C(=O)O)cc2)c(O)n1,inhibition,Mus musculus,0%
same,inhibition,[2],5%
same,IC50,A-427,43 nM
same,IC50,CCRF-CEM,47 nM
same,IC50,Detroit 98,110 nM
same,inhibition,[3],0%
same,Km,Sus scrofa [13],6.7 µM
same,Relative Vmax,Sus scrofa [14],100%
same,IC50,[20],260 nM
same,IC50,[21],2600 nM
same,IC50,[22],400 nM
same,IC50,[23],80 nM
same,IC50,[24],3000 nM
same,IC50,[25],340 nM
same,IC50,L cells [6],88 nM
same,Inhibition,L cells [15],0%
same,Inhibition,L cells [16],6%
same,Inhibition,L cells [26],0%
same,IC50,MOLT-4,58 nM
same,IC50,MCF7,37 nM
same,inhibition,[4],0%
same,ILS at 10 mg/kg,P388 [27],80%
same,ILS at 5 mg/kg,P388 [28],22%
same,ILS at 7.5 mg/kg,P388 [29],40%
same,ILS at 75 mg/kg,P388 [30],0%
same,IC50,SW480,50 nM
same,inhibition,[5],7%
same,IC50,WiDr,45 nM
same,Ratio,[18],14.9
same,inhibition,[31],0%
same,Inhibition,L cells [19],59%
same,inhibition,[32],0%
Nc1nc(N)c(CCCNc2ccc(C(=O)NCC(=O)O)cc2)c(O)n1,IC50,Detroit 98,> 100000 nM
same,IC50,L cells [6],> 100000 nM
